Reference: US4968609A, “Coryneform bacteria carrying recombinant DNA and a process for producing aromatic amino acids using said bacteria” (priority 1984, dated 1990)

Legend:
[1] = test system: 3-deoxy-D-arabinoheptulonic acid-7-phosphate synthetase (DS) of Brevibacterium lactofermentum AJ 11957; experiment: DS activity of crude enzyme solution with amino acids added, strain AJ 11957; conditions: 1 mM each; crude enzyme of AJ 11957; activity with none added = 100%
[2] = test system: 3-deoxy-D-arabinoheptulonic acid-7-phosphate synthetase (DS) of Brevibacterium lactofermentum AJ 12181(AJ 12036/pAR-1); experiment: DS activity of crude enzyme solution with amino acids added, strain AJ 12181 (AJ 12036/pAR-1); conditions: 1 mM each; crude enzyme of AJ 12181 (AJ 12036/pAR-1); activity with none added = 100%
[3] = test system: 3-deoxy-D-arabinoheptulonic acid-7-phosphate synthetase (DS) of Brevibacterium lactofermentum AJ 12036; experiment: DS activity of crude enzyme solution with amino acids added, strain AJ 12036; conditions: 1 mM each; crude enzyme of AJ 12036; activity with none added = 100%
[4] = test system: 3-deoxy-D-arabinoheptulonic acid-7-phosphate synthetase (DS) of Brevibacterium lactofermentum AJ 12182(AJ 12036/pAR-2); experiment: DS activity of crude enzyme solution with amino acids added, strain AJ 12182 (AJ 12036/pAR-2); conditions: 1 mM each; crude enzyme of AJ 12182 (AJ 12036/pAR-2); activity with none added = 100%
[5] = test system: Brevibacterium lactofermentum AJ 12036 transformed with pAR-1 and pAR-2; experiment: Sensitivity of retransformants to m-fluorophenylalanine; assay type: cell-based; conditions: 50 chloramphenicol-resistant retransformants of AJ 12036 with pAR-1 and pAR-2
Method: After culturing at 30° C. for 2 weeks, about 25000 colonies resistant to chloramphenicol appeared, which were replicated in minimal medium (which contained 2% of glucose, 1% of ammonium sulfate, 0.3% of urea, 0.1% of KH2 PO4, 0.04% of MgSO4 ·7H2 O, 2 ppm of iron ions, 2 ppm of manganese ions, […] of thiamine hydrochloride, 50 μg/ml of biotin, 500 μg/ml of m-fluorophenylalanine and 10 μg/ml of chloramphenicol, pH 7.0, 1.8% of agar) to obtain 5 strains resistant to chloramphenicol and m-fluorophenylalanine.
In order to confirm that the gene was present on the recombinant plasmid carrying the DNA fragment, Brevibacterium lactofermentum AJ 12036 was again transformed using the plasmids pARl and pAR-2.
Clearly the genes imparting the m-fluorophenylalanine resistance were present on the above-described plasmids.

## N[C@@H](Cc1ccccc1)C(=O)O [Phenylalanine, phenylalanine]
[1]
  Residual Activity When Each Amino Acid Was Added: 107%
[2]
  Residual Activity When Each Amino Acid Was Added: 112%
[3]
  Residual Activity When Each Amino Acid Was Added: 94%
[4]
  Residual Activity When Each Amino Acid Was Added: 99%

## N[C@@H](Cc1ccc(O)cc1)C(=O)O [Tyrosine, tyrosine]
[2]
  Residual Activity When Each Amino Acid Was Added: 109%
[3]
  Residual Activity When Each Amino Acid Was Added: 51%
[4]
  Residual Activity When Each Amino Acid Was Added: 88%

## N[C@@H](Cc1cccc(F)c1)C(=O)O [m-fluorophenylalanine]
[5]
  sensitivity to m-fluorophenylalanine: All of the strains demonstrated m-fluorophenylalanine resistance
